Assay results: patent publication US20060252683A1, “Preparation of a peptide compound (SYRAPRO-2000) and its use for the activation of protein phosphatase-2A1 enzyme” (priority 2005, published 2006)

Molecular target: protein phosphatase-2A1 (Homo sapiens, UniProt P67775)
Assay: Activation of protein phosphatase-2A1 in intact Jurkat cells (DEAE Sepharose fractions of extracts assayed)
Type: cell-based
Parameters: Protein phosphatase-2A1 purified from CD^4+ T cells as described in materials and method; endogenous in cells; host or cells: Jurkat cells; enzyme purified by DEAE Sepharose, Sephacryl S-300 HR and poly-L-lysine Agarose
Conditions: Jurkat cells treated with 1000 nM for 1 hour, 0.001% DMSO
Description: Jurkat cells (a CD^4+ T cell line) were grown in RPMI 1640 and 10% (v/v) fetal bovine serum. 1600 ml of cell suspension (10^6 cells per ml) were split into two flasks and one was treated with SYRAPRO-2000 for 1 hour (circles) while the other was not (squares). The cells from each flask were collected by centrifugation, washed with 50 mM Imidazole-Cl pH 7.2 plus 150 mM NaCl and then homogenized in homogenization buffer as described in materials and methods. The homogenate from each flask was chromatographed on a DEAE Sepharose column and the eluted fractions were assayed for type 2A protein phosphatase activity as described in materials and method. Similar results were obtained in 3 independent experiments.
The effect of synthesized SYRAPRO-2000 on protein phosphatase-2A1 can be determined in intact cells. Jurkat cells, a human CD^4+ T transformed cell line. Jurkat cells are grown in RPMI 1680 medium supplemented with 5% (v/v) fetal bovine serum and antibiotics and treated or not with 1 μM of SYRAPRO-2000 for 60 minutes. Following treatment with SYRAPRO-2000, cells are harvested by centrifugation, washed and homogenized. A cell extract is prepared by centrifugation and loaded onto a DEAE Sepharose column which is washed and eluted with a liner gradient of buffer plus 0 mM NaCl to buffer plus 400 mM NaCl. […]

Sequence of protein phosphatase-2A1 (P67775 whole entry): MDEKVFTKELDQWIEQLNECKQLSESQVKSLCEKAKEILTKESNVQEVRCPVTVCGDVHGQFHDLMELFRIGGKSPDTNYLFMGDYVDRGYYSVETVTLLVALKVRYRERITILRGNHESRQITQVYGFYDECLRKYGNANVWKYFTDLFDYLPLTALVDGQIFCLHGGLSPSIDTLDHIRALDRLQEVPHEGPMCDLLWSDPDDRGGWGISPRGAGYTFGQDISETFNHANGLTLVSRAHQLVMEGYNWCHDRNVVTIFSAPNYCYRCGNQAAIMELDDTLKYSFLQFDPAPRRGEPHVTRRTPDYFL
Sequence of protein phosphatase-2A1 (P30153 whole entry partner): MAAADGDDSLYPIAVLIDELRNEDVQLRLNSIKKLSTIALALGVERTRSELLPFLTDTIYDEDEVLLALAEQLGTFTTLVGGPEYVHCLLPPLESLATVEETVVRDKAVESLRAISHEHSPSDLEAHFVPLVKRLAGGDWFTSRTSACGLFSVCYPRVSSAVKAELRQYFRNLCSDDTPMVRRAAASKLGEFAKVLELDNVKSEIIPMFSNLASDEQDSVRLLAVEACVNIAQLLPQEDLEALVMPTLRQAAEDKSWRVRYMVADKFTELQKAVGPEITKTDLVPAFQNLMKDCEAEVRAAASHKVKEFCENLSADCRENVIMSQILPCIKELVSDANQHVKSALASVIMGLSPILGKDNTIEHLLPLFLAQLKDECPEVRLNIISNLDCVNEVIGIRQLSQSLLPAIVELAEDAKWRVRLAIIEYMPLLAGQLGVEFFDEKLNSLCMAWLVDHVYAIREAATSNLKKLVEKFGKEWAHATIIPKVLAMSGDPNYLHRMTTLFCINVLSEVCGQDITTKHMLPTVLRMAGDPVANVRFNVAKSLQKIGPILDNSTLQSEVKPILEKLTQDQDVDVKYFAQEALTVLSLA
Sequence of protein phosphatase-2A1 (P63151 whole entry partner): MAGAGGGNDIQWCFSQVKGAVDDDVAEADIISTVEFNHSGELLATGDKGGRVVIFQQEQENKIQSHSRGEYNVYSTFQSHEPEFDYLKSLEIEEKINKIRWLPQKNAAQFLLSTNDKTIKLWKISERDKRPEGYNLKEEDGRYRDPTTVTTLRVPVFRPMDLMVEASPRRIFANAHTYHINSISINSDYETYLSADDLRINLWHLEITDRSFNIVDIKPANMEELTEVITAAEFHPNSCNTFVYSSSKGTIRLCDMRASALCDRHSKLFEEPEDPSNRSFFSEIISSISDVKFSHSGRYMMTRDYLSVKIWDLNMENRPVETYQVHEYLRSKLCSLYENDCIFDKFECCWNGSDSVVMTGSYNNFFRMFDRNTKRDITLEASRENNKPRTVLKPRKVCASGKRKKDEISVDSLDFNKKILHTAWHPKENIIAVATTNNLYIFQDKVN

SMILES: CC[C@H](C)[C@H](NC(=O)[C@H](CCCNC(=N)N)NC(=O)[C@H](CO)NC(=O)[C@H](Cc1c[nH]cn1)NC(=O)[C@H](CCCNC(=N)N)NC(=O)[C@H](CS)NC(=O)CNC(=O)[C@@H](NC(=O)[C@H](CCCNC(=N)N)NC(=O)[C@H](Cc1ccccc1)NC(=O)[C@@H](N)Cc1c[nH]cn1)[C@@H](C)CC)C(=O)NCC(=O)N[C@H](C(=O)N[C@H](C(=O)N[C@@H](CCCNC(=N)N)C(=O)N[C@@H](CCC(N)=O)C(=O)N[C@@H](CCCNC(=N)N)C(=O)N[C@@H](CCCNC(=N)N)C(=O)N[C@@H](C)C(=O)N[C@@H](CCCNC(=N)N)C(=O)N[C@@H](CC(N)=O)C(=O)NCC(=O)N[C@@H](C)C(=O)N[C@@H](CO)C(=O)N[C@@H](CCCNC(=N)N)C(=O)N[C@@H](CO)C(=O)O)[C@@H](C)O)C(C)C [SYRAPRO-2000]
- activity of protein phosphatase-2A1 in intact cells: became activated
